pIC50: −log10 of the molar value.
Key:
Settings in all cases: average where tested multiple times
[1] = biological target: T1, BCAT2 (Homo sapiens, UniProt O15382); experiment: BCAT2 in vitro enzyme inhibition assay (resazurin/diaphorase-coupled fluorescence); assay type: biochemical
T1 sequence (O15382 28-392): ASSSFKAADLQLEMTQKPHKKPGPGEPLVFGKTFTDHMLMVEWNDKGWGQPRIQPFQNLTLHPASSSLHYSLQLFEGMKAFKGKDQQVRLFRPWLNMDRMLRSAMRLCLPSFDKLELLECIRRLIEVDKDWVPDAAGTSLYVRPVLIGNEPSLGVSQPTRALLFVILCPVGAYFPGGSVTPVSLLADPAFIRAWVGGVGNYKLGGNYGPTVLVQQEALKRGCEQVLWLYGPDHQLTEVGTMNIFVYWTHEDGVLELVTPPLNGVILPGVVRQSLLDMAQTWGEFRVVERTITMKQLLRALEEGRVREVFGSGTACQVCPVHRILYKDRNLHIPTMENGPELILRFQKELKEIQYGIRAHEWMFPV
How it was run: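 Coupled fluorescence readout: glutamate formed from L-leucine/α-ketoglutarate transamination drives GDH/NAD/diaphorase reduction of resazurin (Ex 540/Em 590). Human BCAT2 was first exposed 1 h at room temperature to compound, top final 100 μM in 3-fold, 10-point series; substrate reaction ran 1 h before SDS quench, in technical duplicate with DMSO max and enzyme-free min controls.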

[2] = biological target: T2, hBCAT1 (Homo sapiens, UniProt P54687); experiment: BCAT1 in vitro enzyme inhibition assay (resazurin/diaphorase-coupled fluorescence); assay type: biochemical
T2 sequence (P54687 1-386): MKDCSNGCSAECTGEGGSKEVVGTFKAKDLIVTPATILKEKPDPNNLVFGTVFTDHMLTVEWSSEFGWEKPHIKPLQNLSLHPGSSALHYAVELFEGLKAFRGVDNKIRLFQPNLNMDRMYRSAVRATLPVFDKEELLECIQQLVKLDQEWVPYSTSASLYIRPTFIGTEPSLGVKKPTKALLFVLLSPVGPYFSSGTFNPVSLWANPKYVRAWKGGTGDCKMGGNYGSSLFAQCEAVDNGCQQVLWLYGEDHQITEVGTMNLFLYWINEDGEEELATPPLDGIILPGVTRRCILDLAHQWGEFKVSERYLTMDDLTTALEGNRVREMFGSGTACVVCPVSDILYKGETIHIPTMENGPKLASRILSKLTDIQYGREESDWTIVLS
How it was run: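 Ten-point, 3-fold compound series (top final 100 μM, delivered 1:50 from 50× DMSO stocks) tested against hBCAT1. Inhibition detected via diaphorase-coupled resazurin fluorescence, duplicate wells, with values from repeated runs averaged.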

[3] = biological target: T1, BCAT2; experiment: BCAT2 in vitro cell inhibition using engineered A549 cells (KMV cell assay, 13C6-KMV by LC-MS/MS); assay type: cell-based; parameters: The result was an engineered A549 cell line that expressed endogenous BCAT2; endogenous in cells; host or cells: A549 cells with MUT and BCAT1 knocked out by CRISPR/CAS9; key to BCAT2 Cell Inhibition: A: less than or equal to 0.100 μM; B: greater than 0.100 and less than or equal to 0.500 μM; C: greater than 0.500 and less than or equal to 1.000 μM; d: greater than 1.000 μM; E: no fit

pIC50 [1]	pIC50 [2]	pIC50 [3]	BCAT2 Cell Inhibition [3]	SMILES
≥ 7.00	> 6.30	≥ 7.00		O=C(N[C@H]1CCC[C@@H](n2c(-c3c(O)cccc3F)nc3cnc(-c4nc[nH]n4)cc32)C1)c1ccc(Cl)s1 [Example 338, 5-chloro-N-((1S,3R)-3-(2-(2-fluoro-6-hydroxyphenyl)-6-(1H-1,2,4-triazol-3-yl)-1H-imidazo[4,5-c]pyridin-1-yl)cyclohexyl)thiophene-2-carboxamide]
≥ 7.00	> 6.30	6.30 to 7.00		CC(C)Cc1nc2cnc(-c3cccc(F)n3)cc2n1[C@H]1C[C@H](O)C[C@@H](NC(=O)c2ncc(Cl)s2)C1 (stereo in doubt) [Example 385, 5-chloro-N-((1S,3R,5R)-3-(6-(6-fluoropyridin-2-yl)-2-isobutyl-1H-imidazo[4,5-c]pyridin-1-yl)-5-hydroxycyclohexyl)thiazole-2-carboxamide]
≥ 7.00	5.30 to 6.00	6.30 to 7.00		O=C(N[C@H]1CCC[C@@H](n2c(-c3ccccc3F)nc3cnc(-c4cccnc4)cc32)C1)c1ncc(Cl)s1 [Example 180, 5-chloro-N-((1S,3R)-3-(2-(2-fluorophenyl)-6-(pyridin-3-yl)-1H-imidazo[4,5-c]pyridin-1-yl)cyclohexyl)thiazole-2-carboxamide]
≥ 7.00	6.00 to 6.30	6.30 to 7.00		CC(=O)N1CC(NC(=O)c2ncc(C(F)F)s2)CC(n2c(-c3ccccn3)nc3cnc(-n4nccn4)cc32)C1 (stereo not drawn) [Example 121, N-(1-acetyl-5-(2-(pyridin-2-yl)-6-(2H-1,2,3-triazol-2-yl)-1H-imidazo[4,5-c]pyridin-1-yl)piperidin-3-yl)-5-(difluoromethyl)thiazole-2-carboxamide]
≥ 7.00	5.30 to 6.00	< 6.00		O=C(N[C@H]1CCC[C@@H](n2c(C3CCCOC3)nc3cnc(-c4nc[nH]n4)cc32)C1)c1ncc(Cl)s1 (single isomer, unassigned) [Example 102]
≥ 7.00	> 6.30	6.30 to 7.00		Cc1coc(-c2cc3c(cn2)nc(CC(C)C)n3C2CCCC(NC(=O)c3ncc(Cl)s3)C2O)n1 (stereo not drawn) [Example 211, 5-chloro-N-(2-hydroxy-3-(2-isobutyl-6-(4-methyloxazol-2-yl)-1H-imidazo[4,5-c]pyridin-1-yl)cyclohexyl)thiazole-2-carboxamide]
≥ 7.00	> 6.30	6.30 to 7.00		NC1CC(NC(=O)c2ncc(Cl)s2)CC(n2c(-c3ccccc3F)nc3cnc(-c4nc[nH]n4)cc32)C1 (single isomer, unassigned) [Example 455, N-(3-amino-5-(2-(2-fluorophenyl)-6-(1H-1,2,4-triazol-3-yl)-1H-imidazo[4,5-c]pyridin-1-yl)cyclohexyl)-5-chlorothiazole-2-carboxamide]
≥ 7.00	> 6.30	≥ 7.00		CS(=O)(=O)N1C[C@H](NC(=O)c2ccc(Cl)s2)C[C@H](n2c(-c3ccccc3F)nc3cnc(-c4nc[nH]n4)cc32)C1 [Example 458, 5-chloro-N-((3R,5S)-5-(2-(2-fluorophenyl)-6-(1H-1,2,4-triazol-3-yl)-1H-imidazo[4,5-c]pyridin-1-yl)-1-(methylsulfonyl)piperidin-3-yl)thiophene-2-carboxamide]
6.30 to 7.00	> 6.30	6.30 to 7.00		O=C(N[C@@H]1C[C@@H](O)C[C@H](n2c(-c3ccccc3F)nc3cnc(-n4nccn4)cc32)C1)c1ncc(Cl)s1 (single isomer, unassigned) [Example 111]
6.00 to 6.30	< 5.30		E	Cc1noc(C)c1-c1nc2cnc(-n3nccn3)cc2n1[C@@H]1CCC[C@H](NC(=O)c2ncc(C(F)F)s2)C1 [Example 47, 5-(difluoromethyl)-N-((1S,3R)-3-(2-(3,5-dimethylisoxazol-4-yl)-6-(2H-1,2,3-triazol-2-yl)-1H-imidazo[4,5-c]pyridin-1-yl)cyclohexyl)thiazole-2-carboxamide]
6.30 to 7.00	< 5.30	< 6.00		CC(C)Cc1nc2cnc(-c3nnco3)cc2n1[C@@H]1CCC[C@H](NC(=O)c2ncc(Cl)s2)C1 [Example 380, 5-chloro-N-((1S,3R)-3-(2-isobutyl-6-(1,3,4-oxadiazol-2-yl)-1H-imidazo[4,5-c]pyridin-1-yl)cyclohexyl)thiazole-2-carboxamide]
≥ 7.00	> 6.30	≥ 7.00		O=C(N[C@H]1CCC[C@@H](n2c(-c3ccccc3F)nc3cnc(-c4ccccn4)cc32)C1)c1ncc(Cl)s1 [Example 104, 5-chloro-N-((1S,3R)-3-(2-(2-fluorophenyl)-6-(pyridin-2-yl)-1H-imidazo[4,5-c]pyridin-1-yl)cyclohexyl)thiazole-2-carboxamide]
≥ 7.00	> 6.30	6.00 to 6.30		CNc1cc2c(cn1)nc(-c1ccccc1F)n2[C@@H]1C[C@@H](O)C[C@H](NC(=O)c2ncc(Cl)s2)C1 [Example 274, 5-chloro-N-((1R,3S,5S)-3-(2-(2-fluorophenyl)-6-(methylamino)-1H-imidazo[4,5-c]pyridin-1-yl)-5-hydroxycyclohexyl)thiazole-2-carboxamide]
≥ 7.00	> 6.30	≥ 7.00		O=C(N[C@H]1C[C@H](O)C[C@@H](n2c(-c3ccccc3F)nc3cnc(-n4nccn4)cc32)C1)c1ncc(Cl)s1 (single isomer, unassigned) [Example 110]
≥ 7.00	> 6.30	≥ 7.00		Nc1cccc(-c2cc3c(cn2)nc(-c2ccccc2F)n3[C@@H]2CCC[C@H](NC(=O)c3ncc(Cl)s3)C2)n1 [Example 105, N-((1S,3R)-3-(6-(6-aminopyridin-2-yl)-2-(2-fluorophenyl)-1H-imidazo[4,5-c]pyridin-1-yl)cyclohexyl)-5-chlorothiazole-2-carboxamide]
≥ 7.00	> 6.30	≥ 7.00		O=C(N[C@H]1CCC[C@@H](n2c(-c3ccccc3F)nc3cnc(-c4ccccn4)cc32)[C@@H]1O)c1ncc(Cl)s1 [Example 242, 5-chloro-N-((1S,2R,3R)-3-(2-(2-fluorophenyl)-6-(pyridin-2-yl)-1H-imidazo[4,5-c]pyridin-1-yl)-2-hydroxycyclohexyl)thiazole-2-carboxamide]
≥ 7.00	< 5.30	< 6.00		O=C(N[C@H]1CCC[C@@H](n2c(Nc3ccccc3)nc3cnc(-n4nccn4)cc32)C1)c1ncc(C(F)F)s1 [Example 73, 5-(difluoromethyl)-N-((1S,3R)-3-(2-(phenylamino)-6-(2H-1,2,3-triazol-2-yl)-1H-imidazo[4,5-c]pyridin-1-yl)cyclohexyl)thiazole-2-carboxamide]
≥ 7.00	> 6.30	≥ 7.00		CO[C@H]1C[C@H](NC(=O)c2ncc(Cl)s2)C[C@H](n2c(-c3ccccc3F)nc3cnc(-c4nc[nH]n4)cc32)C1 (single isomer, unassigned) [Example 218]
≥ 7.00	5.30 to 6.00	6.30 to 7.00		O=C(NC1CCCC(n2c(-c3ccccn3)nc3cnc(-c4cnco4)cc32)C1)c1ccc(Br)s1 (stereo not drawn) [Example 3, 5-bromo-N-(3-(6-(oxazol-5-yl)-2-(pyridin-2-yl)-1H-imidazo[4,5-c]pyridin-1-yl)cyclohexyl)thiophene-2-carboxamide]

From US20260159512A1, “BCAT2 INHIBITORS” (AGIOS PHARMACEUTICALS, INC., priority 2021, published 2026)
